SMILES: CC(C)CN(C[C@@H](O)[C@H](Cc1ccccc1)NC(=O)OC1CO[C@H]2OCCC12)S(=O)(=O)c1cccc(O)c1 (stereo partly shown)
- melting point: 90 to 93 °C

Source: patent publication US9808527B2, “Methods and compositions for treating HIV infections” (priority 2006, dated 2017)
